Columns and labels:
[1] = Study 1: single-escalating oral dose pharmacokinetics, incl. food effect (Phase 1); format: in vivo, human; details: 50 to 800 mg, fed state
Procedure: Study 1 was the first-in-human study that investigated the safety, tolerability, and PK of single-escalating doses of Compound 1, given orally, to healthy adult subjects. […] The data from this study were used for the selection of doses for Study 2.
In Study 1, Compound 1 was administered to healthy adult subjects as a single PO dose of 2, 10, 50, 150, 400, or 800 mg in the fed state and 150 mg in the fasted state. Absorption occurred moderately late, achieving peak Cmax between 4 to 6 hours following dosing in the fed state.
When Compound 1 was given in the fed state, median time to reach maximum plasma concentration (Tmax) occurred between 4 and 6 hours.
As part of this single-dose escalation study, a food effect PK investigation was performed to examine Compound 1 exposures in both the fed and fasted states at the 150-mg dose level. A total of 6 subjects were administered 150 mg Compound 1 in each of these 2 dosing groups. Of these 6 subjects, 4 subjects received Compound 1 at the same dose in both fed and fasted states. […] Table 6 provides a summary of the PK parameters at the 150-mg dose level under both fed and fasted state conditions.
PK parameters AUC0-∞ and Cmax were analyzed separately for dose proportionality for Compound 1 from 50 to 800 mg when administered in the fed state. […]

[2] = Study 2 Part A: multiple-dose, dose-escalation pharmacokinetics (Phase 1, 14 days); format: in vivo, human; details: after 2 weeks of dosing
Procedure: The 2-part multiple-dose study, Study 2, determined the safety and tolerability of repeated daily doses of Compound 1 and investigated the effects on biomarkers of relevance for the treatment of alcohol dependence.
PK were also evaluated in the multiple-dose, dose-escalation study, Study 2. In Part A of the study, subjects were divided into 3 cohorts and received 50, 150, or 200 mg Compound 1 or placebo for 14 consecutive days (at least 6 subjects received Compound 1 and 2 subjects received placebo in each cohort). […] All dosing occurred in the fed state. An assessment of diurnal cortisol levels, plus when under conditions of glucose clamp, were also carried out both prior to and during the dosing period.
Consistent with the single-dose study (Study 1), concentrations appeared to decline in a bi-exponential manner, characterized by a rapid decrease within the first 24 hours. […] The Tmax appeared to be consistent across doses. Overall half-lives, weight normalized CL/F and V/F were consistent for 150 and 200 mg. However, the values for these latter 2 parameters were almost doubled at the 50-mg dose level. Variability (CV %) for apparent clearance and volume of distribution were large and not reduced with weight-normalization.
Table 8 presents the results of the dose proportionality assessment for the AUC0-24 and Cmax over the tested dose range.

CRF1 receptor = molecular target: T1, CRF1 receptor (Homo sapiens, UniProt P34998); assay: Phase 2 study in adults with classic CAH: hormone response (ACTH, 17-OHP, androstenedione); format: in vivo
T1 construct: from tissue; host or cells: in vivo, human patients (anterior pituitary corticotrophs)
T1 sequence (P34998 24-415): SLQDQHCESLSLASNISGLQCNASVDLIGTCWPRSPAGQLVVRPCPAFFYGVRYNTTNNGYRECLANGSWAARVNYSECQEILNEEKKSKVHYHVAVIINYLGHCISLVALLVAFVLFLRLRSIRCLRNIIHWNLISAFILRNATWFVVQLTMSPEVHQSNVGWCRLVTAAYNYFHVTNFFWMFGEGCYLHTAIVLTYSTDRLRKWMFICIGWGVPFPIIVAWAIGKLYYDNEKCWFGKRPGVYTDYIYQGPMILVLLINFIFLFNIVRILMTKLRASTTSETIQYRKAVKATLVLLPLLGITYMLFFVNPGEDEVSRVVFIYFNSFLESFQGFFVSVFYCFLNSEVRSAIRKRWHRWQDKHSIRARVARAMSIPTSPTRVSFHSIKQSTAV
Description: Cohort A of the Phase 2 Study includes a 6-week, multiple-dose, dose escalation study of Compound 1 for the treatment of adults with classic CAH. After screening, eligible patients will be enrolled into a 6-week treatment period followed by a 4-week washout/safety follow-up period.
This cohort will be conducted in approximately 9 patients, who will receive Compound 1 daily for up to 6 weeks. Compound 1 will be administered as an oral daily dose. Patients will undergo titration of Compound 1 through three escalating dosage strengths at 2-week intervals. […]
Patients in Cohort B will receive study drug at 200 mg BID, with a dose in the morning and a dose in the evening, either with a meal or consumption of a standardized snack. For Cohorts C and D, the dose level and the frequency and timing of dosing will be determined based on interim data from the previous cohorts. […]
• 1. […] To assess the efficacy of Compound 1 in subjects with classic CAH as measured by percent and absolute change in 17-OHP compared to baseline.
• 3. To explore the dose(s) of Compound 1 that cause pharmacodynamics changes in plasma concentrations of ACTH, androstenedione, and testosterone, as measured by the absolute and percent change from baseline by dose. • 4. […]

AUC0-∞ increase for every doubling of dose, relative to dose proportionality [1]: 1.74 times
Cmax dose proportionality, in words [1]: more than dose proportional
Blood concentrations relative to steady state [2]: close to steady-state levels
subjects with 17-OHP within the guideline range after treatment (CRF1 receptor; guideline range (1200 ng/dL)): 50%
morning rise in A4 (CRF1 receptor; patients with CAH): attenuates
SMILES: CCC(CC)c1cc(C)nc2c(-c3sc(N4CCOCC4)nc3Cl)c(C)nn12 [Compound 1, 3-(4-Chloro-2-(morpholin-4-yl)thiazol-5-yl)-7-(1-ethylpropyl)-2,5-dimethylpyrazolo(1,5-a)pyrimidine]
